In US20070184490A1, “Neuronal nicotinic receptor ligands and their use” (priority 2006, published 2007):

Key:
[1] = test system: α4β2, α3β4, or α3β2 NNR subtypes; assay: ion channel flux in cells expressing NNR subtypes; type: cell-based
From the text: One method for assessing ion channel flux is via activation of ion flux into a cell expressed with recombinant α4β2, α3β4, or α3β2 NNR subtypes. Alternatively, a native cell line that expresses NNRs also can be suitable. The method can be accomplished under any suitable binding conditions. Examples of suitable binding conditions for [^3H]-cytisine binding have been described in the art, for example in at least U.S. Pat. Nos. 6,403,575 and 6,133,253, the procedures of which are herein incorporated by reference in their entirety. Data obtained from such ion channel flux assays can be evaluated to determine percent maximal nicotinic response (%), which directly correlates to percent maximal agonist efficacy.
Cells of IMR-32 human neuroblastoma clonal cell line (ATCC, Rockville, Md., USA) were maintained in a log phase of growth according to established procedures. Experimental cells were seeded at a density of 500,000 cells/mL into a 24-well tissue culture dish. Plated cells were allowed to proliferate for at least 48 hours before loading with 2 μCi/mL of ^86Rb^+ (35 Ci/mmol) overnight at 37° C. The ^86Rb^+ efflux assays were performed according to previously published protocols (Lukas, R. J., J. Pharmacol. Exp. Ther., 265, 294-302, 1993) except serum-free Dulbecco's Modified Eagle's medium was used during the ^86Rb^+ loading, rinsing, and agonist-induced efflux steps. […]

adults with ADHD = assay: pilot study: computerized cognitive assessment battery; type: in vivo, human
Procedure: Raters for the CAARS were trained and certified prior to the start of the study. Investigator-administered CAARS, CGI-ADHD-S, Hamilton Anxiety Scale (HAM-A) (Hamilton 1959), and Hamilton Depression Scale (HAM-D) (Hamilton 1960) were administered to subjects at baseline and at the completion of each treatment period (Days 14, 28, 42, and 56). CMRS, HAM-A, and HAM-D ratings were based on the previous seven days. After being trained, subjects completed a computerized cognitive assessment battery (Simpson et al 1989), which was amended to include the Conner's Continuous Performance Test (Conners 1995) and the Stroop Color Word Test (Jensen and Rohwer 1966), at baseline and at the completion of each treatment period. Attentional tasks (simple and choice reaction time, digit vigilance), selective attention (Conner's CPT), working memory tasks (numeric and spatial working memory, rapid visual information processing), episodic secondary memory (immediate and delayed word recall, word and picture recognition), motor control tasks (tracking), and executive function (the Stroop effect) were among the items assessed.
The primary efficacy endpoint was the CAARS total ADHD symptom score (sum of Inattention and Hyperactivity/Impulsivity scores) obtained on the last day of each treatment period. Treatment differences were assessed using an analysis of variance (ANOV A) model with fixed terms fitted for treatment, period, and sequence and a random effect for subjects-within-sequence. […] There were no corrections for multiple comparisons in this proof-of-concept study. Statistical tests of efficacy were one-sided; p-values ≦0.050 were considered statistically significant, and those between […] indicated a statistical trend.

[2] = animal models; U-shaped dose-response; cited from earlier work

Cc1ncccc1OC[C@@H]1CCCN1 [ABT-089, 2-methyl-3-(2-(S)-pyrrolidinylmethoxy)pyridine]
agonist activity at NNRs expressed in vitro [1]: weak agonist activity | Continuous Performance Test Attentiveness (adults with ADHD; 2 mg): 0.56±0.27 | Continuous Performance Test Attentiveness (adults with ADHD; 4 mg): 0.68±0.27 | Continuous Performance Test Attentiveness (adults with ADHD; 20 mg): 0.69±0.27 | information processing speed (adults with ADHD; 20 mg): 516.3±12.7 | Continuous Performance Test number of commission errors (adults with ADHD; all ABT-089 dose levels): statistically significant improvement | measures of attention (reaction time, vigilance), episodic secondary memory, executive function (Stroop Effect) vs placebo (adults with ADHD; in vivo): no meaningful differences | plasma levels associated with efficacy [2]: 5 to 15 ng/mL
